Our source for the IC50 values is patent publication US20240148821A1, “PHARMACEUTICAL USE OF CYCLIC PEPTIDE COMPOUND” (CHUGAI SEIYAKU KABUSHIKI KAISHA, priority 2021, published 2024).

SMILES strings stand for the structures. Numbered stars: 1 amine (or outer) side, 2 acyl side, 3 side chain; on linkers, the order of the positions; unused ones are H or OH. Bridge positions count the residues as written; N and C are the ends. Square brackets hold non-standard residues; d marks the D form. Peptide text beside a SMILES is read from it. * marks the point of attachment. hPhe(3-Cl-4-CF3) = N[C@@H](CCc1ccc(C(F)(F)F)c(Cl)c1)C(=O)O; hPhe(3-F,4-CF3) = N[C@@H](CCc1ccc(C(F)(F)F)c(F)c1)C(=O)O; X120 = O=C([C@H](Cc1cc(F)cc(Br)c1)N[*:1])[*:2]; NMePhe(4-Me) = CN[C@@H](Cc1ccc(C)cc1)C(=O)O; NMeNva(5,5-F2) = CN[C@@H](CCC(F)F)C(=O)O; X72 = O=C([C@@H]1Cc2ccccc2N1[*:1])[*:2]; NMeGly(cPent) = CN[C@H](C(=O)O)C1CCCC1; NMe4Pal = CN[C@@H](Cc1ccncc1)C(=O)O; NMeY = CN[C@@H](Cc1ccc(O)cc1)C(=O)O; NMeCha = CN[C@@H](CC1CCCCC1)C(=O)O; NMeChg = CN[C@H](C(=O)O)C1CCCCC1; NMeI = CC[C@H](C)[C@H](NC)C(=O)O; NMeD = CN[C@@H](CC(=O)O)C(=O)O; NMeL = CN[C@@H](CC(C)C)C(=O)O; NMeV = CN[C@H](C(=O)O)C(C)C; d(β3hA) = C[C@@H](N)CC(=O)O; NMeAbu = CC[C@H](NC)C(=O)O; NMeA = CN[C@@H](C)C(=O)O; NMeAib = CNC(C)(C)C(=O)O; Nle = CCCC[C@H](N)C(=O)O; Piperidide = C1CCN(*)CC1; Pyrrolidide = C1CCN(*)C1; Ac5c = NC1(C(=O)O)CCCC1; Aze = O=C(O)[C@@H]1CCN1; Aib = CC(C)(N)C(=O)O; Sar = CNCC(=O)O

This assay has as its system Human pancreatic cancer cell line AsPC-1 (G12D mutation Kras). The experiment in a line: AsPC-1 cell growth inhibition (AsPC-1 CGI). Type of assay: cell-based. Conditions: read-out: AsPC-1 cell growth inhibition, 50% growth inhibitory concentration (IC50 value); 96 hours, CellTiter-Glo, values classified in ranges. In general terms: Cellular ATP, detected with luciferase, serves as a proxy for viable cell number.
Method: Test compounds were serially dilated with dimethyl sulfoxide, and 200 nL was then dispensed to a U-bottom 96-well plate using Labcyte Echo. […] The cell suspension was dispensed to a. plate containing a test compound at 100 μL per well and incubated at 37° C. in a 5% carbon dioxide gas incubator. 96 hours later, 80 μL of CellTiter-Glo (Promega) was added to each well and fluorescence was measured.
As for `CC[C@H](C)[C@@H]1NC(=O)[C@H](CC(C)C)N(C)C(=O)C[C@@H](C(=O)N2CCCC2)NC(=O)[C@H](CC(C)C)N(C)C(=O)C2(CCCC2)NC(=O)[C@@H]2CCCN2C(=O)[C@H](CCc2ccc(C(F)(F)F)c(F)c2)NC(=O)CN(C)C(=O)[C@H](CC2CCCCC2)N(C)C(=O)CN(C)C(=O)CN(C)C1=O` [Compound 1489] ([NMeL]I[Sar][Sar][NMeCha][Sar][hPhe(3-F,4-CF3)]P[Ac5c][NMeL]D-Pyrrolidide; lactam N-11), the IC50 is > 500 nM.

For the compound `CCCC[C@@H]1NC(=O)[C@H](Cc2cc(F)cc(Br)c2)NC(=O)CN(C)C(=O)[C@H](Cc2ccc(OC)cc2)N(C)C(=O)[C@@H]2CCN2C(=O)[C@H](C)N(C)C(=O)[C@H]([C@@H](C)CC)NC(=O)[C@H](CC)N(C)C(=O)C[C@@H](C(=O)N2CCCCC2)N(C)C(=O)[C@H](CC(C)C)NC(=O)C(C)(C)N(C)C1=O` [Compound 1372] ([NMeAbu]I[NMeA][Aze][NMeY](Me)[Sar][X120][Nle][NMeAib]L[NMeD]-Piperidide; lactam N-11), the IC50 was > 500 nM.

As for `CC[C@H](C)[C@@H]1NC(=O)[C@H](CC(C)C)N(C)C(=O)C[C@@H](C)NC(=O)[C@H](C(C)C)N(C)C(=O)C(C)(C)NC(=O)[C@@H]2CCCN2C(=O)[C@H](CCc2ccc(C(F)(F)F)c(Cl)c2)NC(=O)CN(C)C(=O)[C@H](CC2CCCCC2)N(C)C(=O)CN(C)C(=O)CN(C)C1=O` [Compound 641] (cyclo([Aib][NMeV][d(β3hA)][NMeL]I[Sar][Sar][NMeCha][Sar][hPhe(3-Cl-4-CF3)]P)), the IC50 was > 500 nM.

With `CC[C@H](C)[C@@H]1NC(=O)[C@H](CC(C)C)N(C)C(=O)C[C@@H](C(=O)N(C)C)N(C)C(=O)[C@H]([C@@H](C)CC)N(C)C(=O)C2(CCCC2)NC(=O)[C@H](Cc2ccncc2)N(C)C(=O)[C@H](CCc2ccc(C(F)(F)F)c(Cl)c2)NC(=O)CN(C)C(=O)[C@H](Cc2ccc(C)cc2)N(C)C(=O)[C@@H]2CCN2C(=O)[C@H](C)N(C)C1=O` [Compound 1962] ([NMeL]I[NMeA][Aze][NMePhe(4-Me)][Sar][hPhe(3-Cl-4-CF3)][NMe4Pal][Ac5c][NMeI][NMeD]-NMe2; lactam N-11), the IC50 was ≤ 20 nM.

With `CC[C@H](C)[C@@H]1NC(=O)[C@H](CC(C)C)N(C)C(=O)C[C@@H](C(=O)N(C)C)N(C)C(=O)[C@H](C2CCCC2)N(C)C(=O)C2(CCCC2)NC(=O)[C@@H]2CCCN2C(=O)[C@H](CCc2ccc(C(F)(F)F)c(Cl)c2)NC(=O)CN(C)C(=O)[C@H](CC2CCCCC2)N(C)C(=O)CN(C)C(=O)CN(C)C1=O` [Compound 1659] ([NMeL]I[Sar][Sar][NMeCha][Sar][hPhe(3-Cl-4-CF3)]P[Ac5c][NMeGly(cPent)][NMeD]-NMe2; lactam N-11), the IC50 was ≤ 20 nM.

With `CC[C@H](C)[C@@H]1NC(=O)[C@H](C)N(C)C(=O)C[C@@H](C)NC(=O)[C@H](C(C)C)N(C)C(=O)C2(CCCC2)NC(=O)[C@@H]2CCCN2C(=O)[C@H](CCc2ccc(C(F)(F)F)c(Cl)c2)NC(=O)CN(C)C(=O)[C@H](CC2CCCCC2)N(C)C(=O)[C@@H]2CCN2C(=O)[C@H](C)N(C)C1=O` [Compound 1578] (cyclo([Ac5c][NMeV][d(β3hA)][NMeA]I[NMeA][Aze][NMeCha][Sar][hPhe(3-Cl-4-CF3)]P)), the IC50 was > 500 nM.

As to `CC[C@H](C)[C@@H]1NC(=O)[C@H](CC(C)C)N(C)C(=O)C[C@@H](C(=O)N(C)C)N(C)C(=O)[C@H]([C@@H](C)CC)N(C)C(=O)C2(CCCC2)NC(=O)[C@H](CCC(F)F)N(C)C(=O)[C@H](CCc2ccc(C(F)(F)F)c(Cl)c2)NC(=O)CN(C)C(=O)[C@H](Cc2ccc(C)cc2)N(C)C(=O)[C@@H]2CCN2C(=O)[C@H](C)N(C)C1=O` [Compound 1898] ([NMeL]I[NMeA][Aze][NMePhe(4-Me)][Sar][hPhe(3-Cl-4-CF3)][NMeNva(5,5-F2)][Ac5c][NMeI][NMeD]-NMe2; lactam N-11), the IC50 was ≤ 20 nM.

Consider `CC[C@H](C)[C@@H]1NC(=O)[C@H](CC(C)C)N(C)C(=O)C[C@@H](C(=O)N2CCCCC2)N(C)C(=O)[C@H](C2CCCCC2)N(C)C(=O)C2(CCCC2)NC(=O)[C@@H]2Cc3ccccc3N2C(=O)[C@H](CCc2ccc(C(F)(F)F)c(Cl)c2)NC(=O)CN(C)C(=O)[C@H](CC2CCCCC2)N(C)C(=O)[C@@H]2CCN2C(=O)CN(C)C1=O` [Compound 725] ([NMeL]I[Sar][Aze][NMeCha][Sar][hPhe(3-Cl-4-CF3)][X72][Ac5c][NMeChg][NMeD]-Piperidide; lactam N-11), for which the IC50 was > 500 nM.

As to `CC[C@H](C)[C@@H]1NC(=O)[C@H](CC(C)C)N(C)C(=O)C[C@@H](C)NC(=O)[C@H](C2CCCC2)N(C)C(=O)C2(CCCC2)NC(=O)[C@H](C)NC(=O)[C@H](CCc2ccc(C(F)(F)F)c(Cl)c2)NC(=O)CN(C)C(=O)[C@H](Cc2ccc(C)cc2)N(C)C(=O)[C@@H]2CCN2C(=O)[C@H](C)N(C)C1=O` [Compound 1307] (cyclo(A[Ac5c][NMeGly(cPent)][d(β3hA)][NMeL]I[NMeA][Aze][NMePhe(4-Me)][Sar][hPhe(3-Cl-4-CF3)])), the IC50 was > 500 nM.
